According to patent publication US20240180881A1, “METHODS FOR DECREASING RESISTANCE TO CHEMOTHERAPY” (National Institute of Immunology, priority 2022, published 2024):

Key:
RAD54-BLM interaction = biological target: T1, RAD54-BLM interaction (Homo sapiens, UniProt Q92698); assay: In vitro interaction assay, bound GST-BLM WT and soluble His-RAD54 WT; type: binding; conditions: 10 μM compound
T1 construct: made in house; host or cells: E. coli BL-21 DE3
T1 sequence (Q92698 1-747): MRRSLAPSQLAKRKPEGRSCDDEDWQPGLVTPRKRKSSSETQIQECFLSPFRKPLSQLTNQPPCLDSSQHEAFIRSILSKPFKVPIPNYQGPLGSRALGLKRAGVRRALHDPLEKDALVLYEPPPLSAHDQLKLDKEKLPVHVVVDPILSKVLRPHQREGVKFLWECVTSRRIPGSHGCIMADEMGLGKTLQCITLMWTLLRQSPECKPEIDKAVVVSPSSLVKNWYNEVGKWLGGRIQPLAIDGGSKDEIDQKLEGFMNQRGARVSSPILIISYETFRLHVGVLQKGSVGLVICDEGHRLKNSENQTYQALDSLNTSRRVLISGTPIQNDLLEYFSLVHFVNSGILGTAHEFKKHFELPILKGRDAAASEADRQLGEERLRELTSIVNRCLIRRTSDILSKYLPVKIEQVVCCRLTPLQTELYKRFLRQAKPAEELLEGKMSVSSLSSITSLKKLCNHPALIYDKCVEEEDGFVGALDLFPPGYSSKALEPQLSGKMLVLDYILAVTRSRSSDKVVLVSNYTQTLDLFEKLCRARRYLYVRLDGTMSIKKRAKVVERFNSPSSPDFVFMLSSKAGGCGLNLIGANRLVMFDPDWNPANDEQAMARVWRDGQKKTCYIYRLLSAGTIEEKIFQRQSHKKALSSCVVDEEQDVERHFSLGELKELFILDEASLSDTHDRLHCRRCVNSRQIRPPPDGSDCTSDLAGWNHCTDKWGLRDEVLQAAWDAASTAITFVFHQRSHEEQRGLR
Protocol: (§1) The levels of bound RAD54 were determined by immunoblotting with anti-RAD54 antibody (FIG. 5B). […] (Left) Direct westerns were carried out with antibodies against BLM, RAD54, bActin. (Right) immunoprecipitation (IP) was carried out with anti-BLM antibody. Westerns were carried out with anti-BLM, anti-RAD54 antibodies. The experiment was repeated three times and one representative experiment has been shown (FIG. 11B).
pcDNA3.1 Flag RAD54 was used for coupled in vitro transcription/translation of RAD54 using T7 Quick coupled Transcription/Translation System kit S^35 methionine. Interaction between bound GST-BLM (wildtype or mutants) and radiolabelled RAD54 were carried out as described previously (Gupta et al., 2014). […] 10 μM of the 3 compounds were used in the in vitro interaction assays.

[1] = biological target: T2, RAD54-BLM interaction in HEK293T cells (Homo sapiens, UniProt Q92698); assay: In cellulo interaction assay, immunoprecipitation with anti-BLM antibody; type: cell-based; conditions: 100 nM compound, 72 hours
T2 construct: endogenous in cells; host or cells: HEK293T
T2 sequence (Q92698 1-747): T1 sequence (Q92698 1-747)
Protocol: as §1

HCT116 IC60 CPTR tumors = assay: siRNA-based ablation in xenograft studies; type: in vivo, SCID mice
Protocol: To determine whether the three key players (MRP2, BLM and RAD54) were indispensable for reverting chemoresistance in colon cancer, siRNA-based ablation in xenograft studies was carried out using SCID mice. Once the tumor volume reached 50 mm^3, either siControl or siRAD54 or siBLM or siMRP2 were injected at the base of the tumor using TAC6 polymer mediated in vivo delivery. The experiment was stopped after 21 days after which the levels of RAD54, BLM, MRP2 transcripts were analyzed by RT-qPCR to validate the downregulation of the cognate genes (FIG. 14A-14C). […] This is probably because of greater retention of CPT inside the tumors and thereby allowing increased chemotherapeutic potential of the drug (FIG. 7B).

SMILES	levels of RAD54 bound to GST-BLM WT (RAD54-BLM interaction)	RAD54 co-immunoprecipitated with BLM [1]	tumor growth (HCT116 IC60 CPTR tumors; siBLM, compound and CPT)	tumor volume (HCT116 IC60 CPTR tumors; siControl, compound and CPT compared to only CPT)	tumor development (HCT116 IC60 CPTR tumors; siMRP2, compound and CPT)
CC(=O)Nc1nnc(S(N)(=O)=O)s1 [C3, Acetazolamide]	disrupted the RAD54-BLM interaction	disrupted the RAD54-BLM interaction			
OCCN(CCO)c1nc(N2CCCCC2)c2nc(N(CCO)CCO)nc(N3CCCCC3)c2n1 [C7, Dipyridamole]	disrupted the RAD54-BLM interaction	disrupted the RAD54-BLM interaction			
CN1CCN(C2=Nc3ccccc3Oc3ccc(Cl)cc32)CC1.O=C(O)CCC(=O)O [C17, Loxapine succinate]			rescued tumor growth	decreased tumor volume	decreased tumor development
